Assays:
[1] = test system: HCV Con1 subgenomic replicon of genotype 1b (GS4.1 cells); assay: microbe, parasite or virus in culture; format: cell-based, HCV genotype 1b; conditions: Hepatitis C virus; for EC50: 72 h
[2] = Cytotoxicity (CC50) reported with the HCV replicon ELISA assay; conditions: human
[3] = in vitro; conditions: human

SMILES: Cc1ccc(P(=O)(O)Nc2cc(-c3ccc(F)cc3)sc2C(=O)O)c(C)c1 [Compound 1]
- IC50 [1]: 100 to 8300 nM
- EC50 [1]: > 8.3 µM
- CC50 at 72 hr [2]: > 8.3 µM

SMILES: Cc1ccc(P(=O)(Nc2cc(-c3ccc(Cl)cc3)sc2C(=O)O)OCCC(C)C)c(C)c1 (stereo not shown) [Compound 81]
- IC50 [1]: 100 to 8300 nM
- EC50 [1]: 0.1 to 8.3 µM
- CC50 at 72 hr [2]: > 8.3 µM

SMILES: Cc1ccc(P(=O)(Nc2cc(-c3ccc(Cl)cc3)sc2C(=O)O)OCC2CCOCC2)c(C)c1 (stereo not shown) [Compound 84]
- IC50 [1]: 100 to 8300 nM
- EC50 [1]: 0.1 to 8.3 µM
- CC50 at 72 hr [2]: > 8.3 µM

SMILES: COCCOP(=O)(Nc1cc(-c2ccc(Cl)cc2)sc1C(=O)O)c1ccc(C)cc1C (stereo not shown) [Compound 85]
- IC50 [1]: 100 to 8300 nM
- EC50 [1]: 0.1 to 8.3 µM
- CC50 at 72 hr [2]: > 8.3 µM

SMILES: Cc1ccc(P(=O)(Nc2cc(-c3ccc(Cl)cc3)sc2C(=O)O)OCC(C)C)c(C)c1 (stereo not shown) [Compound 86]
- IC50 [1]: 100 to 8300 nM
- EC50 [1]: 0.1 to 8.3 µM
- CC50 at 72 hr [2]: > 8.3 µM

SMILES: Cc1ccc(P(=O)(Nc2cc(-c3ccc(Cl)cc3)sc2C(=O)O)OCCC(C)(C)C)c(C)c1 (stereo not shown) [Compound 90]
- IC50 [1]: 100 to 8300 nM
- EC50 [1]: 0.1 to 8.3 µM
- CC50 at 72 hr [2]: > 8.3 µM

SMILES: Cc1ccc(P(=O)(Nc2cc(-c3ccc(Cl)cc3)sc2C(=O)O)OCC2CC2)c(C)c1 (stereo not shown) [Compound 91]
- IC50 [1]: 100 to 8300 nM
- EC50 [1]: 0.1 to 8.3 µM
- CC50 at 72 hr [2]: > 8.3 µM

SMILES: Cc1ccc(P(=O)(Nc2cc(-c3ccc(Cl)cc3)sc2C(=O)O)OCCc2ccc(F)cc2)c(C)c1 (stereo not shown) [Compound 92]
- IC50 [1]: 100 to 8300 nM
- EC50 [1]: 0.1 to 8.3 µM
- CC50 at 72 hr [2]: > 8.3 µM

SMILES: Cc1ccc(P(=O)(Nc2cc(-c3ccc(Cl)cc3)sc2C(=O)O)OCc2cc3ccccc3o2)c(C)c1 (stereo not shown) [Compound 93]
- IC50 [1]: 100 to 8300 nM
- EC50 [1]: 0.1 to 8.3 µM
- CC50 at 72 hr [2]: > 8.3 µM

SMILES: COP(=O)(Nc1cc(-c2ccc(N)cc2)sc1C(=O)O)c1ccc(C)cc1C (stereo not shown) [Compound 126]
- IC50 [1]: 100 to 8300 nM
- EC50 [1]: > 8.3 µM
- CC50 [3]: > 8.3 µM

SMILES: COP(=O)(Nc1cc(-c2ccc([N+](=O)[O-])cc2)sc1C(=O)O)c1ccc(C)cc1C (stereo not shown) [Compound 127]
- IC50 [1]: < 100 nM
- EC50 [1]: 0.1 to 8.3 µM
- CC50 [3]: > 8.3 µM

SMILES: COP(=O)(Nc1cc(-c2ccc(-c3c(C)noc3C)cc2)sc1C(=O)O)c1ccc(C)cc1C (stereo not shown) [Compound 128]
- IC50 [1]: 100 to 8300 nM
- EC50 [1]: > 8.3 µM
- CC50 [3]: > 8.3 µM

SMILES: COP(=O)(Nc1cc(-c2ccc(-c3ccc(C(F)(F)F)cc3)cc2)sc1C(=O)O)c1ccc(C)cc1C (stereo not shown) [Compound 129]
- IC50 [1]: < 100 nM
- EC50 [1]: 0.1 to 8.3 µM
- CC50 [3]: > 8.3 µM

SMILES: COP(=O)(Nc1cc(-c2ccc(I)cc2)sc1C(=O)O)c1ccc(C)cc1C (stereo not shown) [Compound 132]
- IC50 [1]: 100 to 8300 nM
- CC50 [3]: > 8.3 µM

SMILES: COP(=O)(Nc1cc(-c2ccc(Cl)cc2)sc1C(=O)O)c1ccc(Cl)cc1F (stereo not shown) [Compound 133]
- IC50 [1]: 100 to 8300 nM
- EC50 [1]: 0.1 to 8.3 µM
- CC50 [3]: > 8.3 µM

SMILES: COP(=O)(Nc1cc(-c2ccc(Cl)cc2)sc1C(=O)O)c1ccc(Cl)cc1C (stereo not shown) [Compound 134]
- IC50 [1]: < 100 nM
- EC50 [1]: 0.1 to 8.3 µM
- CC50 [3]: > 8.3 µM

SMILES: CCOP(=O)(Nc1cc(-c2ccc(Cl)cc2)sc1C(=O)O)c1ccc(Cl)cc1C (stereo not shown) [Compound 136]
- IC50 [1]: < 100 nM
- EC50 [1]: 0.1 to 8.3 µM
- CC50 [3]: > 8.3 µM

SMILES: COP(=O)(c1ccc(C)cc1C)N(C)c1cc(-c2ccc(-c3cc4ncccn4n3)cc2)sc1C(=O)O (stereo not shown) [Compound 138]
- IC50 [1]: < 100 nM
- EC50 [1]: < 0.1 µM
- CC50 [3]: > 8.3 µM

SMILES: COP(=O)(Nc1cc(-c2ccc(C#Cc3cscn3)cc2)sc1C(=O)O)c1ccc(C)cc1C (stereo not shown) [Compound 139]
- IC50 [1]: < 100 nM
- EC50 [1]: < 0.1 µM
- CC50 [3]: > 8.3 µM

SMILES: COC(=O)c1sc(-c2ccc(Cl)cc2)cc1NP(=O)(OC)c1ccc(C)cc1C (stereo not shown) [Compound 140]
- EC50 [1]: > 8.3 µM
- CC50 [3]: > 8.3 µM

SMILES: COP(=O)(Nc1cc(-c2ccc(Br)cc2)sc1C(=O)O)c1ccc(C)cc1C (stereo not shown) [Compound 141]
- IC50 [1]: < 100 nM
- EC50 [1]: 0.1 to 8.3 µM
- CC50 [3]: > 8.3 µM

SMILES: COC(=O)c1sc(-c2ccc(-c3cc4ncccn4n3)cc2)cc1NP(=O)(OC)c1ccc(C)cc1C (stereo not shown) [Compound 142]
- EC50 [1]: 0.1 to 8.3 µM
- CC50 [3]: > 8.3 µM

SMILES: COP(=O)(Nc1cc(-c2ccc(C#Cc3ccccn3)cc2)sc1C(=O)O)c1ccc(C)cc1C (stereo not shown) [Compound 143]
- IC50 [1]: < 100 nM
- EC50 [1]: < 0.1 µM
- CC50 [3]: > 8.3 µM

SMILES: COC(=O)c1sc(-c2ccc(I)cc2)cc1NP(=O)(OC)c1ccc(C)cc1C (stereo not shown) [Compound 144]
- EC50 [1]: > 8.3 µM
- CC50 [3]: > 8.3 µM

SMILES: COP(=O)(c1ccc(C)cc1C)N(C)c1cc(-c2ccc(-c3cc4ncccc4o3)cc2)sc1C(=O)O (stereo not shown) [Compound 145]
- IC50 [1]: < 100 nM
- EC50 [1]: < 0.1 µM
- CC50 [3]: > 8.3 µM

SMILES: COP(=O)(Nc1cc(-c2ccc(C#Cc3ccccc3)cc2)sc1C(=O)O)c1ccc(C)cc1C (stereo not shown) [Compound 146]
- IC50 [1]: < 100 nM
- EC50 [1]: < 0.1 µM
- CC50 [3]: > 8.3 µM

SMILES: COP(=O)(Nc1cc(-c2ccc(-c3ccc(Cl)c(Cl)c3)cc2)sc1C(=O)O)c1ccc(C)cc1C (stereo not shown) [Compound 147]
- IC50 [1]: 100 to 8300 nM
- EC50 [1]: 0.1 to 8.3 µM
- CC50 [3]: > 8.3 µM

SMILES: COC(=O)c1sc(-c2ccc(Br)cc2)cc1NP(=O)(OC)c1ccc(C)cc1C (stereo not shown) [Compound 148]
- IC50 [1]: > 8300 nM
- EC50 [1]: > 8.3 µM
- CC50 [3]: > 8.3 µM

SMILES: COc1ccc(-c2cc(NP(=O)(OC)c3ccc(C)cc3C)c(C(=O)O)s2)cc1 (stereo not shown) [Compound 149]
- IC50 [1]: < 100 nM
- EC50 [1]: 0.1 to 8.3 µM
- CC50 [3]: > 8.3 µM

SMILES: CCOP(=O)(Nc1cc(-c2ccc(-c3cc4ncccc4o3)cc2)sc1C(=O)O)c1ccc(Cl)cc1Cl (stereo not shown) [Compound 150]
- IC50 [1]: < 100 nM
- EC50 [1]: < 0.1 µM
- CC50 [3]: > 8.3 µM

SMILES: COP(=O)(Nc1cc(-c2ccc(Cl)cc2Cl)sc1C(=O)O)c1ccc(C)cc1C (stereo not shown) [Compound 151]
- IC50 [1]: 100 to 8300 nM
- EC50 [1]: > 8.3 µM
- CC50 [3]: > 8.3 µM

SMILES: COP(=O)(Nc1cc(-c2ccc(CC(C)C)cc2)sc1C(=O)O)c1ccc(C)cc1C (stereo not shown) [Compound 154]
- IC50 [1]: 100 to 8300 nM
- EC50 [1]: > 8.3 µM
- CC50 [3]: > 8.3 µM

SMILES: CCOP(=O)(Nc1cc(-c2cc3ccccc3s2)sc1C(=O)O)c1ccc(Cl)cc1Cl (stereo not shown) [Compound 157]
- IC50 [1]: 100 to 8300 nM
- EC50 [1]: > 8.3 µM
- CC50 [3]: > 8.3 µM

SMILES: CCOP(=O)(Nc1cc(-c2ccc(OCc3ccccc3)cc2)sc1C(=O)O)c1ccc(Cl)cc1Cl (stereo not shown) [Compound 158]
- IC50 [1]: 100 to 8300 nM
- EC50 [1]: 0.1 to 8.3 µM
- CC50 [3]: > 8.3 µM

SMILES: COP(=O)(Nc1cc(-c2ccccc2)sc1C(=O)O)c1ccc(Cl)cc1Cl (stereo not shown) [Compound 159]
- IC50 [1]: 100 to 8300 nM
- EC50 [1]: > 8.3 µM
- CC50 [3]: > 8.3 µM

SMILES: CCOP(=O)(Nc1cc(-c2ccc(Cl)c(Cl)c2)sc1C(=O)O)c1ccc(Cl)cc1Cl (stereo not shown) [Compound 161]
- IC50 [1]: 100 to 8300 nM
- EC50 [1]: > 8.3 µM
- CC50 [3]: > 8.3 µM

SMILES: CCOP(=O)(Nc1cc(-c2ccc(Cl)cc2)sc1C(=O)O)c1ccc(Cl)cc1Cl (stereo not shown) [Compound 163]
- IC50 [1]: 100 to 8300 nM
- EC50 [1]: 0.1 to 8.3 µM
- CC50 [3]: > 8.3 µM

SMILES: CCOP(=O)(Nc1cc(-c2ccc(F)cc2)sc1C(=O)OC)c1ccc(Cl)cc1Cl (stereo not shown) [Compound 170]
- EC50 [1]: > 8.3 µM
- CC50 [3]: > 8.3 µM

SMILES: COC(=O)c1sc(-c2ccc(F)cc2)cc1NP(=O)(OC)c1ccc(C)cc1C (stereo not shown) [Compound 172]
- IC50 [1]: > 8300 nM
- EC50 [1]: > 8.3 µM
- CC50 [3]: > 8.3 µM

SMILES: CCOP(=O)(Nc1cc(-c2ccc(F)cc2)sc1C(=O)OC)c1ccc(C)cc1C (stereo not shown) [Compound 173]
- IC50 [1]: > 8300 nM
- EC50 [1]: > 8.3 µM
- CC50 [3]: > 8.3 µM

SMILES: COP(=O)(Cc1cc(-c2ccc(-c3cc4ncccc4o3)cc2)sc1C(=O)O)c1ccc(C)cc1C (stereo not shown) [Compound 174]
- IC50 [1]: < 100 nM
- EC50 [1]: < 0.1 µM
- CC50 [3]: > 8.3 µM

SMILES: CCOP(=O)(Cc1cc(-c2ccc(-c3cc4ncccn4n3)cc2)sc1C(=O)O)c1ccc(C)cc1C (stereo not shown) [Compound 175]
- IC50 [1]: < 100 nM
- EC50 [1]: 0.1 to 8.3 µM
- CC50 [3]: > 8.3 µM

SMILES: COP(=O)(Cc1cc(-c2ccc(F)cc2)sc1C(=O)O)c1ccc(C)cc1C (stereo not shown) [Compound 176]
- IC50 [1]: 100 to 8300 nM
- EC50 [1]: > 8.3 µM
- CC50 [3]: > 8.3 µM

SMILES: COP(=O)(Cc1cc(-c2ccccc2)sc1C(=O)O)c1ccc(C)cc1C (stereo not shown) [Compound 177]
- IC50 [1]: 100 to 8300 nM
- EC50 [1]: > 8.3 µM
- CC50 [3]: > 8.3 µM

SMILES: CCOP(=O)(Cc1cc(-c2ccccc2)sc1C(=O)O)c1ccc(C)cc1C (stereo not shown) [Compound 178]
- IC50 [1]: 100 to 8300 nM
- EC50 [1]: > 8.3 µM
- CC50 [3]: > 8.3 µM

SMILES: CCOP(=O)(Cc1cc(-c2ccc(F)cc2)sc1C(=O)O)c1ccc(C)cc1C (stereo not shown) [Compound 179]
- IC50 [1]: 100 to 8300 nM
- EC50 [1]: > 8.3 µM
- CC50 [3]: > 8.3 µM

Reference: US8193372B2, “Phosphothiophene and phosphothiazole HCV polymerase inhibitors” (Idenix Pharmaceuticals, Inc., priority 2009, dated 2012)
